Consider seven compounds from patent publication US11161830B2, “4-pyridone compound or salt thereof, and pharmaceutical composition and formulation including same” (priority 2017, dated 2021).

Like-named read-outs stand apart in the source and are kept apart here.

The assay has as its system HBV. Briefly: Test Example 1-2: anti-HBV assay in HepG2.2.15 cells (test solution 100 μL/well). The class given is cell-based, hepatitis B virus. Conditions: culture supernatant. Here is the method:
Using HepG2.2.15 cells (Proc. Natl. Acad. Sci. USA, 84, 1005-1009, 1987) which have an HBV genome introduced into a hepatoblastoma cell line, HepG2, and persistently produce a virus, the anti-HBV activity of the representative compounds was evaluated in the following procedure.
The following was used as a medium:
DMEM/F-12, GlutaMAX (manufactured by Invitrogen)+5 μg/mL insulin (manufactured by Wako)+1% penicillin/streptomycin (manufactured by Sigma)+10 mmol/L HEPES (manufactured by Sigma)+50 μmol/L hydrocortisone (manufactured by Sigma)+10% FBS
A mixture of a test compound with dimethyl sulfoxide (DMSO) was further added to the medium to obtain a final concentration of DMSO of 0.25% (v/v), and thus, test solutions containing the test compound at various concentrations were prepared. In addition, a test solution obtained by adding DMSO alone to the medium to obtain a final concentration of 0.25% (v/v) was prepared as a control without addition of a drug.
(1) The HepG2.2.15 cells were suspended in the medium to prepare a. HepG2.2.15 cell suspension at 4×10^5 cells/mL. The suspension was seeded in a 96-well microtiter plate (100 μL/well) and the plate was incubated in a 5% CO2 incubator at 37° C. for 2 days.
(2) The culture supernatant was removed and the cells were washed twice with PBS (−) (100 μL/well).
(3) The test solution (200 μL/well) was added to the plate of (2) and the plate was incubated in a 5% CO2 incubator at 37° C. for 4 days.
(4) The culture supernatant was removed, the test solution (200 μL/well) was added again to the plate, and the plate was incubated in a 5% CO2 incubator at 37° C. for 3 days.
(5) The culture supernatant was collected and treated with a mixture of Buffer AL (manufactured by QIAGEN) and Proteinase K (manufactured by Invitrogen). The amount of DNA of HBV (HBV-DNA) in the obtained solution was absolutely quantified by a real-time PCR method. In addition, HBsAg (hepatitis B surface antigen) in the culture supernatant was absolutely quantified by chemiluminescent enzyme immunoassay using Lumipulse (registered trademark) HBsAg-HQ (manufactured by Fujirebio Inc.). The relative viral load (%) of a well with the compound added to a well without the compound added was calculated. An IC50 of the compound was calculated using a FORECAST function (linear regression method) of Microsoft Office Excel 2007 by plotting the logarithm of the concentration against the relative viral load as a real number.
The IC50 of HBV-DNA was defined as a concentration (or a logarithm dilution of the culture supernatant) of the compound, in which the amount of HBV-DNA is reduced by 50% as compared a control without the compound added.
In addition, the IC50 of HBsAg was defined as a concentration (or a logarithm dilution of the culture supernatant) of the compound, in which the amount of HBsAg is reduced by 50% as compared a control without the compound added.
The test was performed by the same method as in Test Example 1-1 except that the amounts of the test solutions of (3) and (4) of Test Example 1-1 was changed to 100 μL/well.

Setting [1] is: Hepatitis B virus, read-out: IC50 HBV-DNA.
The mark [2] stands for this setting: Hepatitis B virus, read-out: IC50 HBsAg.

On to `CO[C@@H]1CCN(c2ccc(-c3cc(=O)c(C(=O)O)cn3-c3ccc4nc(N5CC(OCC6CCCO6)C5)sc4c3)cc2F)C1` (stereo partly drawn) [Example 23-3, 6-(3-fluoro-4-((R)-3-methoxypyrrolidin-1-yl)phenyl)-4-oxo-1-(2-(3-((tetrahydrofuran-2-yl)methoxy)azetidin-1-yl)benzo[d]thiazol-6-yl)-1,4-dihydropyridine-3-carboxylic acid], for which the half-maximal inhibitory concentration (IC50) under setting [1] came out at 0.61 nM and the IC50 under setting [2] was determined as 1.7 nM.

Regarding `CO[C@@H]1CCN(c2ccc(-c3cc(=O)c(C(=O)O)cn3-c3ccc4nc(N5CC(OCCF)C5)sc4c3)cc2F)C1` [Example 23-4], the IC50 by setting is: (read-out: IC50 HBV-DNA) 0.88 nM; (read-out: IC50 HBsAg) 3.8 nM.

Take `COCCCOC1CN(c2nc3ccc(-n4cc(C(=O)O)c(=O)cc4-c4ccc(N5CC[C@@H](OC)C5)c(F)c4)cc3s2)C1` [Example 23-5]: the IC50 was found to be 0.5 nM (read-out: IC50 HBV-DNA) and 2.7 nM (read-out: IC50 HBsAg).

For `CCOC1CN(c2nc3ccc(-n4cc(C(=O)O)c(=O)cc4-c4ccc(N5CC[C@@H](OC)C5)c(F)c4)cc3s2)C1` [Example 23-6, (R)-1-(2-(3-ethoxyazetidin-1-yl)benzo[d]thiazol-6-yl)-6-(3-fluoro-4-(3-methoxypyrrolidin-1-yl)phenyl)-4-oxo-1,4-dihydropyridine-3-carboxylic acid], the IC50 under setting [1] is 0.45 nM and the half-inhibitory concentration (IC50) under setting [2] turned out to be 1.1 nM.

As for `CO[C@@H]1CCN(c2ccc(-c3cc(=O)c(C(=O)O)cn3-c3ccc4nc(N5CC(OC(C)C)C5)sc4c3)cc2F)C1` [Example 23-7, (R)-6-(3-fluoro-4-(3-methoxypyrrolidin-1-yl)phenyl)-1-(2-(3-isopropoxyazetidin-1-yl)benzo[d]thiazol-6-yl)-4-oxo-1,4-dihydropyridine-3-carboxylic acid], the IC50 under setting [1] is 0.65 nM and the 50% inhibitory concentration (IC50) under setting [2] was 1.1 nM.

Turning to `CO[C@@H]1CCN(c2ccc(-c3cc(=O)c(C(=O)O)cn3-c3ccc4nc(N5CC(C)(OC)C5)sc4c3)cc2F)C1` [Example 23-8, (R)-6-(3-fluoro-4-(3-methoxypyrrolidin-1-yl)phenyl)-1-(2-(3-methoxy-3-methylazetidin-1-yl)benzo[d]thiazol-6-yl)-4-oxo-1,4-dihydropyridine-3-carboxylic acid], the IC50 came out at 0.89 nM under setting [1] and 1.4 nM under setting [2].

Regarding `COCCOC1CN(c2nc3ccc(-n4cc(C(=O)O)c(=O)cc4-c4ccc(N5CC[C@@H](OC)C5)c(F)c4)cc3s2)C1` [Example 23-9], the IC50 (read-out: IC50 HBV-DNA) was determined as 0.68 nM and the IC50 (read-out: IC50 HBsAg) amounted to 1.8 nM.
